Measured values from ChEMBL document CHEMBL1124608, “Synthesis of acylguanidine analogues: inhibitors of ADP-induced platelet aggregation” (J Med Chem, 1989).
Values after ≈ are worked out from the molar mass of the structure shown. Values joined by “and” are separate entries in the source; they are usually repeats but may differ in a detail not shown here. Equal entries are not always repeated. Active and inactive are the calls of the source. The calls are words filed in the database; no cut-off is given here.

Legend:
[1] = Inhibitory concentration required to inhibit ADP-induced platelet aggregation in human platelet rich plasma; type: functional, cell-free
[2] = Concentration required to inhibit in vitro ADP-induced platelet aggregation in human platelet rich plasma relative PGE1; type: functional
Rattus norvegicus [3] = experiment: ADP-induced platelet aggregation activity was tested for oral activity in rats at dose 100 mg/kg; type: functional
Cavia porcellus [4] = experiment: ADP-induced platelet aggregation activity was tested for oral activity in guinea pigs at dose 100 mg/kg; type: functional
Rattus norvegicus [5] = experiment: ADP-induced platelet aggregation activity was tested for oral activity in rats at dose 30 mg/kg; type: functional
Cavia porcellus [6] = experiment: ADP-induced platelet aggregation activity was tested for oral activity in guinea pigs at dose 30 mg/kg; type: functional
Homo sapiens [7] = organism: Homo sapiens; experiment: Activity against PRP following incubation for 30 min in human whole blood; Active; type: functional, tissue-based
Cavia porcellus [8] = experiment: ADP-induced platelet aggregation activity was tested for oral activity in guinea pigs at dose 50 mg/kg
[9] = Inhibitory activity against ADP-induced platelet aggregation at concentration 3.2 ug/mL; type: functional, Homo sapiens
[10] = Inhibitory activity against ADP-induced platelet aggregation at concentration 1.0 ug/mL; type: functional; details: Homo sapiens
[11] = Inhibitory activity against ADP-induced platelet aggregation at concentration 10 ug/mL; type: functional, Homo sapiens; details: for inhibition at 10 µg/mL: Homo sapiens
Rattus norvegicus [12] = experiment: ADP-induced platelet aggregation activity was tested for oral activity in rats at dose 25 mg/kg; type: functional
Rattus norvegicus [13] = experiment: ADP-induced platelet aggregation activity was tested for oral activity in rats at dose 50 mg/kg; type: functional
Cavia porcellus [14] = experiment: ADP-induced platelet aggregation activity was tested for oral activity in guinea pigs at dose 50 mg/kg; type: functional
[15] = Inhibitory activity against ADP-induced platelet aggregation at concentration 32 ng/mL; type: functional, Homo sapiens
[16] = Inhibitory activity against ADP-induced platelet aggregation at concentration 10 ng/mL; type: functional, Homo sapiens
Homo sapiens [17] = organism: Homo sapiens; experiment: Activity against PRP following incubation for 30 min in human whole blood; Inactive; type: functional, tissue-based
[18] = Inhibitory activity against ADP-induced platelet aggregation at concentration 1 ug/mL; type: functional, Homo sapiens

Compound | IC50 [1] [µg/mL] | Relative potency [2] | Aggregation (Rattus norvegicus [3]) [%] | further results
CN(CCCCCCN(C)C(=O)N(C(=NC1CCCCC1)N1CCOCC1)C1CCCCC1)C(=O)N(C(=NC1CCCCC1)N1CCOCC1)C1CCCCC1 | 3.2 (≈ 4.09 µM) | 0.003 | 52 | Aggregation (Cavia porcellus [4]): 41%; Aggregation (Rattus norvegicus [5]): 81.2%
O=C(N1CCN(C(=O)N(/C(=N/C2CCCCC2)N2CCOCC2)C2CCCCC2)CC1)N(/C(=N/C1CCCCC1)N1CCOCC1)C1CCCCC1 | 10 (≈ 13.8 µM) | 0.001 | 44.8 | 
CN(CCN(C)C(=O)N(C(=NC1CCCCC1)N1CCOCC1)C1CCCCC1)C(=O)N(C(=NC1CCCCC1)N1CCOCC1)C1CCCCC1 | 3.2 (≈ 4.4 µM) | 0.003 | 100 | Aggregation (Cavia porcellus [6]): 62.7%; Aggregation (Cavia porcellus [4]): 0%
O=C(NCc1cccc(CNC(=O)N(C(=NC2CCCCC2)N2CCOCC2)C2CCCCC2)c1)N(C(=NC1CCCCC1)N1CCOCC1)C1CCCCC1 | 3.2 (≈ 4.13 µM) | 0.003 |  | Activity (Homo sapiens [7]): Active; Aggregation (Cavia porcellus [8]): 19.3%; inhibition at 3.2 µg/mL ([9]; Homo sapiens): 40%; inhibition at 1 µg/mL [10]: 27%; inhibition at 10 µg/mL [11]: 68%
CCCCC[C@H](O)/C=C/[C@H]1[C@H](O)CC(=O)[C@@H]1CCCCCCC(=O)O [ALPROSTADIL] | 0.01 (≈ 0.0282 µM) | 1 |  | Inhibition [15]: 94% and 90% and 72%; Inhibition [16]: 56% and 28% and 37%
O=C(NCCCCCCCCCNC(=O)N(C(=NC1CCCCC1)N1CCOCC1)C1CCCCC1)N(C(=NC1CCCCC1)N1CCOCC1)C1CCCCC1 | 10 (≈ 12.5 µM) | 0.001 |  | 
O=C(NCc1cc(CNC(=O)N(C(=NC2CCCCC2)N2CCOCC2)C2CCCCC2)cc(CNC(=O)N(C(=NC2CCCCC2)N2CCOCC2)C2CCCCC2)c1)N(C(=NC1CCCCC1)N1CCOCC1)C1CCCCC1 | 10 (≈ 8.9 µM) | 0.001 |  | Activity (Homo sapiens [17]): inactive
CN(Cc1cccc(CN(C)C(=O)N(C(=NC2CCCCC2)N2CCOCC2)C2CCCCC2)c1)C(=O)N(C(=NC1CCCCC1)N1CCOCC1)C1CCCCC1 | 3.2 (≈ 3.98 µM) | 0.003 | 38.5 | 
O=C(NCCCCNC(=O)N(C(=NC1CCCCC1)N1CCOCC1)C1CCCCC1)N(C(=NC1CCCCC1)N1CCOCC1)C1CCCCC1 | 10 (≈ 13.8 µM) | 0.001 | 73.5 | 

Second part, led by results:

IC50 [1] [µg/mL] | Compound | Relative potency [2] | Aggregation (Rattus norvegicus [3]) [%] | further results
10 (≈ 13.3 µM) | O=C(NCCCCCCNC(=O)N(C(=NC1CCCCC1)N1CCCCC1)C1CCCCC1)N(C(=NC1CCCCC1)N1CCCCC1)C1CCCCC1 | 0.001 | 46.2 | Aggregation (Rattus norvegicus [12]): 83.2%; Aggregation (Cavia porcellus [4]): 48.7%; Aggregation (Rattus norvegicus [13]): 86%; Aggregation (Cavia porcellus [14]): 47.7%
10 (≈ 13.5 µM) | O=C(NCCCCCNC(=O)N(C(=NC1CCCCC1)N1CCOCC1)C1CCCCC1)N(C(=NC1CCCCC1)N1CCOCC1)C1CCCCC1 | 0.001 | 41 | 
10 (≈ 13 µM) | O=C(NCCCCCCCNC(=O)N(C(=NC1CCCCC1)N1CCOCC1)C1CCCCC1)N(C(=NC1CCCCC1)N1CCOCC1)C1CCCCC1 | 0.001 | 70.5 | 
10 (≈ 12.8 µM) | O=C(NCCCCCCCCNC(=O)N(C(=NC1CCCCC1)N1CCOCC1)C1CCCCC1)N(C(=NC1CCCCC1)N1CCOCC1)C1CCCCC1 | 0.001 |  | 
10 | Cl.Cl.O=C(NCCCCCCNC(=O)N(/C(=N/C1CCCCC1)N1CCOCC1)C1CCCCC1)N(/C(=N\C1CCCCC1)N1CCOCC1)C1CCCCC1 | 0.001 | 84.5 | 
3.2 (≈ 4.24 µM) | O=C(NCCCCCCNC(=O)N(C(=NC1CCCCC1)N1CCOCC1)C1CCCCC1)N(C(=NC1CCCCC1)N1CCOCC1)C1CCCCC1 | 0.003 | 80.8 | Activity (Homo sapiens [7]): Active; Inhibition [9]: 38% and 62%; Inhibition [18]: 27%; inhibition at 1 µg/mL ([18]; Homo sapiens): 29%; Inhibition [11]: 85%; inhibition at 10 µg/mL [11]: 82%
